Measured values: patent US20220281865A1, “DIHYDROPYRIMIDINE DERIVATIVES AND USES THEREOF IN THE TREATMENT OF HBV INFECTION OR OF HBV-INDUCED DISEASES” (Janssen Sciences Ireland Unlimited Company, priority 2019, published 2022)

Legend:
[1] = Cytotoxicity determination in HepG2.2.15 cells (CCK-8 cell viability); type: cell-based; conditions: human, 6 days treatment, CCK-8 assay
Description: (§1) HepG2.2.15 (the HepG2.2.15 cell line can be produced by transfection of the HepG2 cell line as described in Sells, Chen, and Acs 1987 (Proc. Natl. Acad. Sci. USA 84: 1005-1009), and the HepG2 cell line is available from ATCC® under number HB-8065™)
(§2) HepG2.2.15 cells were plated into 96-well plate in 2% FBS culture medium at the density of 40,000 cells/well and 5,000 cells/well for HBV inhibitory activity and cytotoxicity determination, respectively. After incubation at 37° C., 5% CO2 overnight, cells were treated with medium containing compounds for 6 days with medium and compounds refreshed after 3 days of treatment. Each compound was tested in a 1:3 serial dilutions at 8 different concentrations in triplicate. The highest concentration of the compounds was 10 uM or 1 uM for anti-HBV activity assay and 100 uM for cytotoxicity determination.
Cell viability was determined by CCK-8 assay. After 6 days of compounds treatment, 20 μl CCK-8 reagents were added to each well of cytotoxicity assay plates. Cell plates were incubated at 37° C., 5% CO2 for 2.5 h. The absorbance at 450 nm wavelength and the absorbance at 630 nm wavelength as reference was measured.
(§3) EC50 and CC50 values are calculated by the GRAPHPAD PRISM software.

HBV = assay: Anti-HBV activity in HepG2.2.15 cells (HBV DNA in culture medium by qPCR); type: cell-based; conditions: Hepatitis B virus, 144 h, 6 days treatment
Description: as §1, §2
The change of HBV DNA level induced by the compounds was assessed by quantitative real-time polymerase chain reaction (qPCR). Briefly, the HBV DNA in the culture medium was extracted using QIAamp 96 DNA Blood Kit according to the manual and then quantified by real-time PCR assay using the primers and probe in the table 1 below.
as §3

SMILES | CC50 at 6 days [1] [µM] | EC50 (HBV) [µM]
CCOC(=O)C1=C(CN2CC(F)(F)[C@H]3CCN(CC(C)(C)C(=O)O)C(=O)[C@H]32)NC(c2nccs2)=N[C@H]1c1cccc(F)c1C (single isomer, unassigned) [Compound I-1, 3-((3aS*,7aS*)-1-(((S)-5-(ethoxycarbonyl)-6-(3-fluoro-2-methylphenyl)-2-(thiazol-2-yl)-3,6-dihydropyrimidin-4-yl)methyl)-3,3-difluoro-7-oxohexahydro-1H-pyrrolo[2,3-c]pyridin-6(2H)-yl)-2,2-dimethylpropanoic acid] | 32 | 0.06
CCOC(=O)C1=C(CN2CC(F)(F)[C@H]3CC(=O)N(CC(C)(C)C(=O)O)C[C@H]32)NC(c2nccs2)=N[C@H]1c1cccc(F)c1C (single isomer, unassigned) [Compound I-2, 3-((3aS*,7aS*)-1-(((S)-5-(ethoxycarbonyl)-6-(3-fluoro-2-methylphenyl)-2-(thiazol-2-yl)-3,6-dihydropyrimidin-4-yl)methyl)-3,3-difluoro-5-oxohexahydro-1H-pyrrolo[2,3-c]pyridin-6(2H)-yl)-2,2-dimethylpropanoic acid] | 50.4 | 0.034
CCOC(=O)C1=C(CN2CC(F)(F)[C@H]3CCN(C(=O)C(C)(C)C(=O)O)C[C@H]32)NC(c2nccs2)=N[C@H]1c1cccc(F)c1C (single isomer, unassigned) [Compound I-3, 3-((3aS*,7aS*)-1-(((S)-5-(ethoxycarbonyl)-6-(3-fluoro-2-methylphenyl)-2-(thiazol-2-yl)-3,6-dihydropyrimidin-4-yl)methyl)-3,3-difluorohexahydro-1H-pyrrolo[2,3-c]pyridin-6(2H)-yl)-2,2-dimethyl-3-oxopropanoic acid] | 30 | 0.21
CCOC(=O)C1=C(CN2CC(F)(F)[C@H]3C(=O)N(CC(C)(C)C(=O)O)CC[C@H]32)NC(c2nccs2)=N[C@H]1c1cccc(F)c1C (single isomer, unassigned) [Compound I-5, 3-((3aR*,7aR*)-1-(((S)-5-(ethoxycarbonyl)-6-(3-fluoro-2-methylphenyl)-2-(thiazol-2-yl)-3,6-dihydropyrimidin-4-yl)methyl)-3,3-difluoro-4-oxohexahydro-1H-pyrrolo[3,2-c]pyridin-5(6H)-yl)-2,2-dimethylpropanoic acid] | 47.1 | 0.048
CCOC(=O)C1=C(CN2CC(F)(F)[C@H]3CN(CC(C)(C)C(=O)O)CC[C@H]32)NC(c2nccs2)=N[C@H]1c1cccc(F)c1C (single isomer, unassigned) [Compound I-6, 3-((3aS*,7aR*)-1-(((S)-5-(ethoxycarbonyl)-6-(3-fluoro-2-methylphenyl)-2-(thiazol-2-yl)-3,6-dihydropyrimidin-4-yl)methyl)-3,3-difluorohexahydro-1H-pyrrolo[3,2-c]pyridin-5(6H)-yl)-2,2-dimethylpropanoic acid] | 43.4 | 0.081
CCOC(=O)C1=C(CN2CC(F)(F)[C@H]3CN(C(=O)C(C)(C)C(=O)O)CC[C@H]32)NC(c2nccs2)=N[C@H]1c1cccc(F)c1C [Compound I-4, 3-((cis)-1-(((S)-5-(ethoxycarbonyl)-6-(3-fluoro-2-methylphenyl)-2-(thiazol-2-yl)-3,6-dihydropyrimidin-4-yl)methyl)-3,3-difluorohexahydro-1H-pyrrolo[3,2-c]pyridin-5(6H)-yl)-2,2-dimethyl-3-oxopropanoic acid] | 34.4 | 0.081
